Results reported in patent publication US20060263802A1 (priority 2003, published 2006).

Assays:
Assay type in all cases: binding
[1] = test system: human monoclonal antibody CRJB
[2] = test system: human monoclonal antibody CR57
[3] = test system: human monoclonal antibody CRJA
[4] = test system: human monoclonal antibody CRJB; remark: listed apart in the source
[5] = test system: human monoclonal antibody CR57; remark: listed apart in the source
[6] = test system: human monoclonal antibody CRJA; remark: listed apart in the source

| Sequence | Binding of CRJB to linear peptide (PEPSCAN-ELISA signal) [1] | Binding of CR57 to linear peptide (PEPSCAN-ELISA signal) [2] | Binding of CRJA to linear peptide (PEPSCAN-ELISA signal) [3] | Binding of CRJB (10 μg/ml) to looped/cyclic peptide (PEPSCAN-ELISA signal) [4] | Binding of CR57 (10 μg/ml) to looped/cyclic peptide (PEPSCAN-ELISA signal) [5] | Binding of CRJA (10 μg/ml) to looped/cyclic peptide (PEPSCAN-ELISA signal) [6] | Binding of CRJB (10 μg/ml) to looped/cyclic peptide (PEPSCAN-ELISA) [4] | Binding of CR57 (10 μg/ml) to looped/cyclic peptide (PEPSCAN-ELISA) [5] | Binding of CRJA (10 μg/ml) to looped/cyclic peptide (PEPSCAN-ELISA) [6] | Binding of human monoclonal antibody CRJB to linear peptide (PEPSCAN-ELISA signal) [1] | Binding of human monoclonal antibody CR57 to linear peptide (PEPSCAN-ELISA signal) [2] | Binding of human monoclonal antibody CRJA to linear peptide (PEPSCAN-ELISA signal) [3] | Binding of CRJB to looped/cyclic peptide (PEPSCAN-ELISA signal) [4] | Binding of CR57 to looped/cyclic peptide (PEPSCAN-ELISA signal) [5] | Binding of CRJA to looped/cyclic peptide (PEPSCAN-ELISA signal) [6] | binding of antibody CR57 to linear peptide (PEPSCAN OD) [2] |
| --- | --- | --- | --- | --- | --- | --- | --- | --- | --- | --- | --- | --- | --- | --- | --- | --- |
| SVADLDPYDRSLHSR | 106 | 49 | 92 | 71 | 58 | 83 | – | – | – | – | – | – | – | – | – | – |
| PDGNVLIPEMQSSLL | 129 | 87 | 99 | – | – | – | 108 | 110 | 112 | – | – | – | – | – | – | – |
| EAEDFVEVHLPDVHN | – | – | – | – | – | – | – | – | – | 117 | 76 | 97 | 93 | 98 | 105 | – |
| MEADAHYKSVRTWNE | 129 | 62 | 78 | – | – | – | 86 | 69 | 68 | – | – | – | – | – | – | – |
| HVNGVFFNGIILGPD | 123 | 97 | 108 | – | – | – | 92 | 97 | 105 | – | – | – | – | – | – | – |
| LSGFSYMELKVGYIL | 132 | 71 | 82 | 74 | 72 | 83 | – | – | – | – | – | – | – | – | – | – |
| RASKGSETCGFVDER | 110 | 86 | 90 | – | – | – | 90 | 105 | 100 | – | – | – | – | – | – | – |
| VLGLRLMDGTWVAMQ | 141 | 90 | 107 | – | – | – | 106 | 94 | 108 | – | – | – | – | – | – | – |
| MELLESSVIPLVHPL | 125 | 90 | 83 | – | – | – | 100 | 115 | 94 | – | – | – | – | – | – | – |
| HMELLESSVIPLVHP | 129 | 110 | 114 | – | – | – | 104 | 118 | 106 | – | – | – | – | – | – | – |
| SSTYCSTNHDYTIWM | 107 | 76 | 71 | 66 | 96 | 90 | – | – | – | – | – | – | – | – | – | – |
| RCHPHVNGVFFNGII | 141 | 98 | 108 | – | – | – | 100 | 104 | 106 | – | – | – | – | – | – | – |
| KLKLCGVLGLRLMDG | 120 | 273 | 101 | – | – | – | 63 | 13 | 79 | – | – | – | – | – | – | bound |
| EIEHLVVEELVRKRE | 113 | 82 | 86 | – | – | – | 89 | 107 | 93 | – | – | – | – | – | – | – |
| DGNVLIPEMQSSLLQ | 134 | 123 | 93 | – | – | – | 104 | 114 | 107 | – | – | – | – | – | – | – |
| CRAAYNWKMAGDPRY | 118 | 87 | 113 | 68 | 107 | 111 | – | – | – | – | – | – | – | – | – | – |
| KESLVIISPSVADLD | 117 | 86 | 123 | 85 | 86 | 83 | – | – | – | – | – | – | – | – | – | – |
| LYKSLKGACKLKLCG | 136 | 93 | 94 | – | – | – | 79 | 91 | 107 | – | – | – | – | – | – | – |
| LKGACKLKLCGVLGL | 90 | 340 | 100 | – | – | – | 76 | 105 | 87 | – | – | – | – | – | – | bound |
| KGACKLKLCGVLGLR | 111 | 181 | 50 | – | – | – | 60 | 78 | 50 | – | – | – | – | – | – | bound |
| VPGFGKAYTIFNKTL | 114 | 58 | 96 | – | – | – | 42 | 74 | 87 | – | – | – | – | – | – | – |
| HDYTIWMPENPRLGM | 125 | 82 | 110 | 96 | 88 | 97 | – | – | – | – | – | – | – | – | – | – |
| KFPIYTILDKLGPWS | 97 | 71 | 65 | 64 | 72 | 43 | – | – | – | – | – | – | – | – | – | – |
| KTLMEADAHYKSVRT | 98 | 91 | 102 | – | – | – | 97 | 125 | 92 | – | – | – | – | – | – | – |
| RKREECLDALESIMT | 110 | 73 | 96 | – | – | – | 96 | 132 | 129 | – | – | – | – | – | – | – |
| CTGVVTEAENYTNFV | 123 | 76 | 89 | 85 | 92 | 101 | – | – | – | – | – | – | – | – | – | – |
| IMTTKSVSFRRLSHL | 101 | 43 | 85 | – | – | – | 42 | 74 | 63 | – | – | – | – | – | – | – |
| KGSETCGFVDERGLY | 97 | 90 | 100 | – | – | – | 72 | 111 | 71 | – | – | – | – | – | – | – |
| SPSVADLDPYDRSLH | 114 | 59 | 72 | 63 | 76 | 51 | – | – | – | – | – | – | – | – | – | – |
